Data: patent publication US12264323B2, “CRISPR CPF1 direct repeat variants” (THE BROAD INSTITUTE, INC., priority 2018, dated 2025)

How the values were obtained:
[1] = test system: essential genes; test: PAM identification by analysis of essential genes in a dropout screen; assay type: cell-based; conditions: cell lines A375, MelJuSo, A549, OVCAR8, and 7860
[2] = test system: CD47, CD63, and B2M; test: Triple knockout with Cas12a, flow cytometry of cell surface markers in A375 cells; assay type: cell-based, human; conditions: 6 multiplexed arrays, three timepoints, irrespective of guide position
Experimental: A375 cells stably expressing enCas12a were transduced with 6 triple knockout arrays, 3 single knockout constructs, and one empty control vector. Two days after transduction, cells were selected with puromycin ([…]), and passaged on puromycin for 7 days. Cells were visualized by flow cytometry on the BDAccuri C6 Sampler system 9, 18, and 25 days post infection. […] Flow cytometry data were analyzed using FlowJo (v10). […] Zero, single, double, and triple knockout populations were quantified using boolean gating in FlowJo.
Using these guides, 6 multiplexed arrays with all possible guide orientations were generated (FIG. 21A-21B). Three single guide constructs, and one empty vector control, and used flow cytometry were also included (FIGS. 31A-31E) to quantify the fraction of cells that were edited or not for all three markers. […] In this internally-controlled assay, EGFP labels cells without enCas12a (and thus no dsDNA breaks) and the fraction of enCas12a-positive, EGFP-negative cells over time was measured by flow cytometry (FIG. 33A). […]

[3] = test system: MAPK1-MAPK3; test: Synthetic lethal (SynLet) multiplexed guide pair screen; assay type: cell-based, human; conditions: MAPK1-MAPK3, OVCAR8 cells
Excerpt: For a construct with the ordered elements guide1, DR, guide2, it can be said that the
[formula] where m and β are a fitted slope and intercept. The residual then is the difference between the observed and expected LFCs. Filtering SynLet Libraries
To assess the effectiveness of multiplexing across numerous endogenous genes, a library targeting synthetically lethal (SynLet) gene pairs was designed. […] For As Cas12a, a second guide needed only 43 additional nucleotides. […] Furthermore, the proximity of guides in the enCas12a construct made sequencing and downstream analyses easier.
For each gene in a given pair, up to 20 guides were picked at random, 15 and 5 of which targeted TTTV and TTTT PAMs respectively (FIG. 15A). Pairs were screened in both orientations and the top three direct repeats were used. Thus, each gene pair was assessed with up to 2,400 unique constructs (20 guides×20 guides×2 orientations×3 DRs). […]
To quantitate synergies between guide pairs, an expected phenotype was first calculated by determining the average LFC of each targeting guide when it was coupled with controls (FIG. 29A), and then summing the average LFC for the two guides. […] Finally, the residual from the fit line for all constructs were calculated, where a negative residual indicates a synthetic lethal pair. […]

[4] = test system: Factor VII; conditions: LNP siRNA systems containing the lipid; hepatocytes in vivo; cited from earlier work
[5] = test system: essential genes; test: Mismatched guide library off-target dropout screen in A375 cells; conditions: cutoff 5th percentile of controls
Experimental: Cell lines stably expressing Cas12a were transduced with guides cloned into the pRDA_052 vector in two biological replicates at a low MOI (˜0.5). Transductions were performed with enough cells to achieve a representation of at least 500 cells per guide per replicate, taking into account a 30-50% transduction efficiency. Throughout the screen, cells were split at a density to maintain a representation of at least 500 cells per guide, and cell counts were taken at each passage to monitor growth. Puromycin selection was added 2 days post-transduction and was maintained for 5-7 days. After puromycin selection was complete, each replicate was divided into untreated (i.e. no drug/dropout arms) and small molecule treatment arms, each at a representation of at least 500 cells per guide.
In order to assess the off-target tolerance of AsCas12a, a library of guides intentionally mismatched to their target was constructed. […] Screens were performed in duplicate in A375 cells with dropout, vemurafenib, and 6-thioguanine arms in cells stably expressing 2×NLS-Cas12a and enCas12a.

[6] = test system: essential genes; test: AsCas12a tiling library pooled dropout (viability) screens; assay type: cell-based, human; design: AUC after selecting top half of guides by Seq-DeepCpf1 score: unit not given beside the values; conditions: for guides targeting a TTTT site observed to be active / precision recall area under curve (AUC): A375 viability data; for guides targeting a TTTT site observed to be active: activity cutoff 5th percentile of guides targeting control genes; for precision recall area under curve (AUC): essential gene guides true positives, control gene guides false positives, TTTT PAMs excluded for AsCas12a; for AUC after selecting top half of guides by Seq-DeepCpf1 score: essential and non-essential guides of the tiling screens; for guides active, all guides / guides active, quartile with the highest Seq-DeepCpf1 prediction scores: guides targeting essential genes, cutoff 5th percentile of cell surface control guides
Excerpt: The AsCas12a library was cloned into a modified version of lentiGuide, pRDA_052, which expresses the guide from a U6 promoter and confers puromycin resistance.

[7] = test system: target sites with TYCV/CCCC and TATV PAMs; conditions: in vitro and in human cells; cited from earlier work
[8] = test system: genome-wide off-target sites; conditions: genome-wide assessment of off-target activity; cited from earlier work
[9] = test system: target sites preceded by a PAM; test: Determination of PAM (plasmid depletion in E. coli); assay type: cell-based; conditions: N is A/C/G or T
Excerpt: Determination of PAM can be ensured as follows This experiment closely parallels similar work in E. coli for the heterologous expression of StCas9 (Sapranauskas, R. et al. Nucleic Acids Res 39, 9275-9282 (2011)). Applicants introduce a plasmid containing both a PAM and a resistance gene into the heterologous E. coli, and then plate on the corresponding antibiotic. If there is DNA cleavage of the plasmid, Applicants observe no viable colonies.
In further detail, the assay is as follows for a DNA target. Two E. coli strains are used in this assay. One carries a plasmid that encodes the endogenous effector protein locus from the bacterial strain. The other strain carries an empty plasmid (e.g. pACYC184, control strain). All possible 7 or 8 bp PAM sequences are presented on an antibiotic resistance plasmid (pUC19 with ampicillin resistance gene). The PAM is located next to the sequence of proto-spacer 1 (the DNA target to the first spacer in the endogenous effector protein locus). Two PAM libraries were cloned. One has an 8 random bp 5′ of the proto-spacer (e.g., total of 65536 different PAM sequences=complexity). The other library has 7 random bp 3′ of the proto-spacer (e.g. total complexity is 16384 different PAMs). Both libraries were cloned to have in average 500 plasmids per possible PAM. […]

[10] = test system: dystrophin; conditions: 48 weeks; cited from earlier work

## AsCas12a: Cas12a (Cpf1) effector used for the screens, here in multiplexed guide arrays
[1]
  protospacer adjacent motif (PAM): TTTV
[2]
  cells showing editing at all three loci: approximately 70%
[3]
  guide pairs scored as synthetic lethal: 98%

## CCCCC/C=C\C/C=C\CCCCCCCCOCC(CN(C)C)OCCCCCCCC/C=C\C/C=C\CCCCC (stereo not shown) [DLinDMA, 1,2-dilinoleyloxy-3-N,N-dimethylaminopropane]
[4]
  potency order of gene silencing: DLinKC2-DMA>DLinKDMA>DLinDMA>>DLinDAP

## enCas12a: enCas12a lentiviral expression construct; AsCas12a comprising E174R/S542R/K548R mutations
[5]
  double mismatch guides active: 16%
  perfect match guides scoring as active: 91%
  single mismatch guides active: 54%
[6]
  guides targeting a TTTT site observed to be active: 57%
  precision recall area under curve (AUC): 0.96
  AUC after selecting top half of guides by Seq-DeepCpf1 score: 0.97
  guides active, all guides: 80%
  guides active, quartile with the highest Seq-DeepCpf1 prediction scores: 94%
[6]; EEF2 guides of the tiling library
  EEF2 guides targeting TTTN active: 62%
[6]; TTTC substituted in silico for the actual PAM
  non-canonical tier 1 guides active, quartile with highest Seq-DeepCpf1 scores: 93%
[6]; non-canonical (non-TTTN) PAMs
  EEF2 guides targeting the other tier 1 PAMs active: 68%

## 1×NLS-Cas12a: lx-NLS-Cas12a lentiviral expression construct; Addgene 84750 [reference compound]
[6]
  guides targeting a TTTT site observed to be active: 7%
  precision recall area under curve (AUC): 0.61

## CCCCC/C=C\C/C=C\CCCCCCCCC1(CCCCCCCC/C=C\C/C=C\CCCCC)OCC(CCN(C)C)O1 (stereo not shown) [DLinKC2-DMA, 1,2-dilinoleyl-4-(2-dimethylaminoethyl)-[1,3]-dioxolane]
[4]
  potency order of gene silencing: DLinKC2-DMA>DLinKDMA>DLinDMA>>DLinDAP

## S542R/K607R: variant of AsCpf1 engineered with the mutations S542R/K607R
[7]
  PAMs of target sites that can be cleaved: TYCV/CCCC
[8]
  DNA targeting specificity: retain a high level of DNA targeting specificity

## S542R/K548V/N552R: variant of AsCpf1 engineered with the mutations S542R/K548V/N552R
[7]
  PAMs of target sites that can be cleaved: TATV
[8]
  DNA targeting specificity: retain a high level of DNA targeting specificity

## CCCCC/C=C\C/C=C\CCCCCCCC(=O)OCC(CN(C)C)OC(=O)CCCCCCC/C=C\C/C=C\CCCCC (stereo not shown) [DLinDAP, 1,2-dilineoyl-3-dimethylammonium-propane]
[4]
  potency order of gene silencing: DLinKC2-DMA>DLinKDMA>DLinDMA>>DLinDAP

## AsCpf1: Acidaminococcus sp. BV3L6 Cpf1
[9]
  PAM preceding the target sites that can be cleaved: TTTV

## 2×NLS-Cas12a: 2×-NLS-Cas12a lentiviral expression construct
[5]
  double mismatch guides active: 9%
  perfect match guides scoring as active: 94%
  single mismatch guides active: 28%
[6]
  guides targeting a TTTT site observed to be active: 7%
  precision recall area under curve (AUC): 0.84
  AUC after selecting top half of guides by Seq-DeepCpf1 score: 0.94
  guides active, all guides: 47%
  guides active, quartile with the highest Seq-DeepCpf1 prediction scores: 92%

## Eteplirsen
[10]
  dystrophin positive fibers compared to baseline (average): 47%

## 1,2-dilinoleyloxy-keto-N,N-dimethyl-3-aminopropane [DLinKDMA]
[4]
  potency order of gene silencing: DLinKC2-DMA>DLinKDMA>DLinDMA>>DLinDAP
